We go through 2 molecules from patent publication US20130011345A1, “FLAVOR-ENHANCING AMIDE COMPOUNDS” (priority 2011, published 2013).

SMILES strings stand for the structures.

The nature of the experiment: Sensory evaluation of the MSG-IMP umami composition combined with Formulas II and III by a trained sensory panel. As to conditions: for Flavor Profile: trained sensory panel; for Effect on umami flavor of the MSG-IMP mixture (summary statement): combined with MSG-IMP mixture, all tested concentrations. An excerpt:
The MSG-IMP mixture (0.01% MSG and 0.005% IMP), an umami composition, was combined with Formulas II and III at different concentrations and evaluated by a trained sensory panel.

Setting [1] is: Formula concentration 1 ppm in MSG-IMP mixture (0.01% MSG and 0.005% IMP).
The mark [2] stands for this setting: Formula concentration 500 ppb in MSG-IMP mixture (0.01% MSG and 0.005% IMP).

In the case of `C#CC#CCC/C=C/C(=O)NCC(C)CC` (stereo not shown) [Formula II, (E)-N-(2-methylbutyl)nona-2-en-6,8-diynamide], the “Effect on umami flavor of the MSG-IMP mixture (summary statement)” value is recorded as “enhanced the umami flavor”. In addition, the “Flavor Profile” value under setting [1] was “Increased umami flavor and less greasy”. Moreover, under “Formula concentration 5 ppm in MSG-IMP mixture (0.01% MSG and 0.005% IMP)”, the “Flavor Profile” value was “Strong umami enhancement”. The “Flavor Profile” value under setting [2] is recorded as “Increased mouth-feel, savory”.
In the case of `C#CC#CCC/C=C\C(=O)NCC(C)CC` (stereo not shown) [Formula III, (Z)-N-(2-methylbutyl)nona-2-en-6,8-diynamide], the “Effect on umami flavor of the MSG-IMP mixture (summary statement)” value is “enhanced the umami flavor”. In addition, under setting [1], the “Flavor Profile” value is “Increased mouthfullness, delocalized”. Further, under setting [2], the “Flavor Profile” value was “Increased mouthfullness, delocalized”.
